tested on: SVCT1; assay: Real-time PCR in-vitro test of SVCT1 gene expression in primary keratinocytes; type: cell-based, human; settings: NHEK; 10 μM
Description: Confluent primary keratinocytes (NHEK) were treated with a test compound or subsequently used for reverse transcription and real-time PCR analysis of SVCT1 and SVCT2. 18S-rRNA and GAPDH mRNA analysis served as endogenous control (housekeeping genes).
Primary adult epidermal keratinocytes (NHEK) for Cambrex Company (USA, Ordering number: CC-2501) have been used in this study. They were grown in KGM medium (Cambrex Company, USA, Ordering number: CC-3101 and CC-4131) on fibronectin and collagen type I coated plastic dishes (6- or 12-well plates) at 37° C. and 5% CO2 and expanded until passage 4 where they were used for further experiments.
NHEK cells at passage 4 were seated in 6 well plates at a density of 5000 cells/cm2, determined by means of a Thoma chamber under a light microscope. Cells were grown to 100% confluence within 5-6 days with medium changed every second day and were further used for in vitro-test for gene expression as depicted schematically in FIG. 1.
After removal of the supernatant the cells were rinsed twice with Dubellco's phophate buffered saline (PBS, Sigma, Germany), cells were lysed with 350 μl of a lysis buffer (Buffer RL, Qiagen AG, Basel, Switzerland) containing 1% β-mercaptoethanol (Sigma, USA) and total RNAs from cell lysates were extracted using the QIAshredder column and the RNeasy® Mini Kit (Qiagen AG, Basel, Switzerland). RNA quantification was performed using the Ribogreen® RNA quantitation Kit (Molecular Probes, USA) on 96-well plates and a fluorescence microplate reader (Spectra fluor plus F 129005, Tecan). The measurements were done in duplicate. The samples were diluted either 1:680 or 1:3400 in a final volume of 100 μl 1×TE buffer. Dilutions of the ribosomal RNA in a concentration of 1, 0.5, 0.1, 0.02, 0 μg/ml were used as standards and the measurement was performed by fluorimetry at 485 nm and 538 nm. RNA quantification was then calculated compared to the standard curve. Integrity of RNA was controlled using agarose gel electrophoresis (1% agarose in TBE: 90 mM Tris/HCl pH 8.0, 80 mM Boric acid, 3 mM EDTA in ddH2O).
For reverse transciption 2 μl pd(N)6 random hexamers (Amersham Biosciences, Art. n° 272080, England) and 1 μl dNTP (10 mM, Amersham Biosciences, Art. n° 272050, −60, −70, −80, England) were added to 2 μg RNA in nuclease-free water (Ambion, USA) in a final volume of 12 μl. After 5 min incubation at 65° C., samples were immediately placed on ice and quickly centrifuged. Then, 4 μl of 5× first strand buffer (250 mM NaCl, 0.1 mM EDTA, 1 mM DTT, 0.1% (V/v) NP-40, 50% (v/v) glycerol), 2 μl of dithiothreitol, 1 μl of RNase inhibitor and 1 μl of reverse transcriptase SuperScript II RNase H^− (SUPERase-In, 20 U/μl, Ambion, Art. n° 2694, USA) were added (final volume 20 μl). […] The sample was then kept in the freezer at −20° C. until further use.
The real-time PCR was performed according to the TaqMane method in 96 well plates (96WP) using assays-on-demand primer and probes (SVCT1: Hs00195277_ml, SVCT2:, Hs00192765_ml, 18S-rRNA: 4310893E, GAPDH: 4310884E Applied Biosystems, USA). Analysis was done in triplicate using a master mix (3.5×) which contained 43.7 μl TaqMan® 2× Universal PCR master mix (Applied Biosystems, USA), 4.4 μl assays-on-demand primers and probes, 21.9 μl nuclease-free water and 17.5 μl cDNA (87.5 ng=[…] per replicate). Triplicates of 25 μl master mix were loaded on a 96 well ABI PRISM reaction plate (Applied Biosystems, USA), covered with a transparent optical adhesive cover and centrifuged three times at 200 rpm for 1 min or until all air-bubbles had been removed. The PCR reaction was then performed in the ABI PRISMS 7000 Sequence Detection System (Applied Biosystems, USA) using the following temperature program: activation of the enzyme: 2 min at 50° C.; denaturation: 10 min at 95° C. and 40 cycles target amplification: 15 sec […] at 95° C. and 1 min extension at 60° C.

Compound | influence on expression
Oc1ccc(C2COc3cc(O)ccc3C2)cc1 (racemic) [equol, (R,S)-equol] | did not show any influence
COc1cc(/C=C/C(=O)CC(=O)/C=C/c2ccc(O)c(OC)c2)ccc1O [curcumin] | did not show any influence
O=c1c(-c2ccc(O)cc2)coc2cc(O)cc(O)c12 [genistein] | did not show any influence
COc1ccc([C@@H]2CC(=O)c3c(O)cc(O)cc3O2)cc1O [hesperetin/hesperidin, hesperetin] | did not show any influence
O=c1c(O)c(-c2ccc(O)c(O)c2)oc2cc(O)cc(O)c12 [quercitin, quercetin] | did not show any influence
(−) epigallocatechin gallate [(−) epigallocatechin gallate (EGCg)] | did not show any influence

same assay, conditions: summary statement in description

Compound | transcription of SVCT1 mRNA
[Cl-].[Cl-].[Zn+2] [ZnCl2] | significantly down-regulated
CC1=C(/C=C/C(C)=C/C=C/C(C)=C/C(=O)O)C(C)(C)CCC1 [all-trans retinoic acid] | significantly down-regulated
C[S+]([O-])CCCCN=C=S (stereo not shown) [sulforaphane] | significantly down-regulated

tested on: HaCaT cells; assay: 14C-labelled ascorbic acid up-take in HaCaT cells (oxidative stress model); type: cell-based, human; settings: iron salt treated cells
Description: Confluent HaCaT cells were treated for 18-24 h with a test compound or control, incubated with ^14C-labelled ascorbic acid at two different concentrations (5 μM and 250 μM) for 5 min, 10 min, 30 min, 60 min, 90 min and 120 min. Cells were lysed and the radiolabel in the supernatant and the cell lysate was quantified by scintillation counting.
Confluent HaCaT cells were treated for 2 h with 50 μM menadione (black rhombus), 500 μM H2O2 (triangles), conditioned medium obtained from UV-irradiated HaCaT cells (squares) or control (grey rhombus) and subsequently incubated with 50 μM ^14C-labelled ascorbic acid for 5 min, 10 min, 30 min, 60 min, 90 min and 120 min. Cells were lysed and the radiolabel in supernatant and cell lysate quantified by scintillation counting.
Confluent HaCaT cells were treated with 50 μM FeCl3 (triangles) or controls (grey rhombus) for 24 h and for additional 2 h with 50 μM menadione (filled symbols) or controls (open symbols). Subsequently, cells were incubated with 50 μM ^14C-labelled ascorbic acid for 5 min, 10 min, 30 min, 60 min, 90 min and 120 min, cells were lysed and the radiolabel in supernatant and cell lysate quantified by scintillation counting.
Confluent HaCaT cells were incubated with or without test compound (aqueous FeCl3 solution in different concentrations) for 18-24 h and eventually stressed for further 2 h with 50 μM menadione, 500 μM H2O2 or conditioned medium obtained from UV-irradiated HaCaTs. Then cells were washed twice with PBS and incubated with 300 μl or 400 μl of ^14C-labelled ascorbic acid at different concentrations of (5 μM, 50 μM or 250 μM) by diluting the prepared stock solution in the appropriate amount of transfer buffer. After incubation at 37° C. for different periods of time (5, 10, 30, 60, 90 and 120 min) cells were immediately placed on ice, supernatant removed and frozen, cells washed twice with ice-cold PBS and finally harvested with a cell scraper and 300 μl or 400 μl urea buffer (9.5M urea, 10 mM Tris/HCl pH 8.0, 2 mM EDTA pH 8.0). Amount of radiolabel in supernatant and cell lysate was then measured by scintillation counting of a dilution of 50 μl supernatant or 200 μl of cell lysate in 9 ml scintillation cocktail. Obtained data were analysed by blotting incubation time versus ascorbic acid up-take (either as percentage or nmolar).

Compound | Vitamin C uptake by the cell
[Cl][Fe]([Cl])[Cl] [FeCl3] | enlarged

same assay, conditions: similar conditions as for FeCl3; data not shown

Compound | ascorbic acid up-take in the oxidative stress model
CC(=O)N[C@@H](CS)C(=O)O [N-acetyl-cysteine] | increase ascorbic acid up-take
N[C@@H](CCC(=O)N[C@@H](CS)C(=O)NCC(=O)O)C(=O)O [glutathione] | increase ascorbic acid up-take
NCCCC[C@H](N)C(=O)O [lysine] | increase ascorbic acid up-take

Reference: patent publication US20080193505A1, “Nutritional Compositions For Modulating Vitamin C Bio-Availability” (Nestec S.A., priority 2005, published 2008)
